Laboratory results as given in article PMC10683023, “Targeting Glial Cells by Organic Anion-Transporting Polypeptide 1C1 (OATP1C1)-Utilizing L-Thyroxine-Derived Prodrugs” (Journal of Medicinal Chemistry, 2023).

How the values were obtained:
[1] = Enzymatic bioconversion in mouse primary astrocyte–microglia homogenate; assay type: in vitro ADME; conditions: after 5 h incubation, 100 μM prodrug, 37 °C, mean ± SD, n = 3
Description: (§1) The rates of bioactivation of the prodrugs 1–8 in mouse and human liver S9 fractions, as well as in mouse primary astrocyte–microglia homogenate, were determined at +37 °C. The incubation mixtures were prepared by mixing liver S9 subcellular fraction or brain cell homogenate (final protein concentration 1.0 mg/mL) with isotonic Tris–HCl buffer (pH 7.4) and 10 mM prodrug stock solution in DMSO (the initial concentration of prodrugs was 100 μM and the DMSO concentration was […]). The mixture was incubated for 5 h, and the samples ([…]) were withdrawn at appropriate intervals. The enzymatic reaction was terminated by the addition of ice-cold acetonitrile ([…]), and the samples were centrifuged for 5 min at 12 000 rpm at room temperature and kept on ice until the supernatants were analyzed by the HPLC method described below. In blank reactions, the S9 fractions were replaced with the same volume of buffer. The pseudo-first-order half-lives (t1/2) for the rates of bioconversion of the prodrugs were calculated from the slope of the linear portion of the plotted logarithm of the remaining prodrug concentration versus time. The rates of bioactivation of prodrugs 1–8 in human plasma and mouse serum were determined at 37 °C as above by adding 10 mM stock solution of the prodrug to plasma/serum in a ratio of 1:10 and analyzed similarly to the samples from S9 fractions.
(§2) The amount of prodrug 1–8 was determined by the HPLC system, which consisted of an Agilent 1100 binary pump (Agilent Technologies Inc., Wilmington, DE), an 1100 micro vacuum degasser, an HP 1050 Autosampler, and an HP 1050 variable wavelength detector, operated at 230–240 nm. The chromatographic separations were achieved on an Agilent Zorbax SB-C18 analytical column (4.4 mm × 150 mm, 5 μm) (Agilent Technologies Inc., Wilmington, DE) by using isocratic elution of water containing 0.1% formic acid (pH ca. 3.0) and acetonitrile containing 0.1% formic acid with ratios of 50:50, 30:70, 40:60, 50:50, 50:50, 40:60, 40:60, and 30:70 (v/v), respectively, for prodrug 1–8. […] The lower limit of quantification for prodrugs 1–8 was 0.20 μM. These HPLC methods were also accurate, precise, and selective over the range of 0.5–20 μM.

[2] = Enzymatic bioconversion in human plasma; assay type: in vitro ADME; conditions: after 5 h incubation, 37 °C, mean ± SD, n = 3
Description: as §1, §2

[3] = Enzymatic bioconversion in mouse serum; assay type: in vitro ADME; conditions: after 5 h incubation, 37 °C, mean ± SD, n = 3
Description: as §1, §2

[4] = Enzymatic bioconversion in human liver S9 fraction; assay type: in vitro ADME; conditions: after 5 h incubation, 100 μM prodrug, 37 °C, mean ± SD, n = 3
Description: as §1, §2

[5] = system: human U-87MG glioma cells; assay: Concentration-dependent cellular uptake into human U-87MG glioma cells; assay type: cell-based; conditions: 5–400 μM, 30 min, 37 °C
Description: U-87MG (ATCC, HTB-14, unknown origin) was purchased from Lonza (Basel, Switzerland). The cells were cultured in standard conditions (37 °C, 5% CO2) using Dulbecco’s modified Eagle’s medium (DMEM) supplemented with L-glutamine (2.0 mM), heat-inactivated fetal bovine serum (FBS) (10%), penicillin (50 U/mL), and streptomycin (50 μg/mL). U-87MG cells (passages 8–25) were seeded at a density of 1 × 10^5 cells/well onto 24-well plates and used for the uptake experiments 1 day after seeding. All of the studies were carried out as three biological replicates from the same cell passage.
(§3) After removal of the culture medium, U-87MG human glioma cells and mouse primary astrocytes were carefully washed with prewarmed Hank’s balanced salt solution (HBSS) containing 125.0 mM NaCl (or choline chloride in Na^+ free conditions), 4.8 mM KCl, 1.2 mM MgSO4, 1.2 mM KH2PO4, 1.3 mM CaCl2, 5.6 mM glucose, and 25.0 mM 4-(2-hydroxyethyl)piperazine-1-ethanesulfonic acid (HEPES) with the pH adjusted to either 7.4 or pH 8.5 with 1 M NaOH (or KOH in sodium-free conditions). In the experiments at lower pH (4.5–6.5), 25.0 mM HEPES was replaced by 2-(N-morpholino) ethanesulfonic acid (MES), and the pH was adjusted to 4.5, 5.5, and 6.5 by 1.0 M NaOH. Preincubation was done with 500 μL of prewarmed HBSS at 37 °C for 10 min before adding the substrate for the uptake experiments. The functionality of OATP1C1 in human glioma U-87MG cells was studied with a known substrate (L-thyroxine, T4) and of oatp1a4, 1a5, and 1a6 in mouse primary astrocytes with [6,7-^3H(N)]-estrone-3-sulfate (ES) by incubating the uptake solution (250 μL in HBSS) consisting of 5–400 μM of the substrate at 37 °C for 30 min. After incubation, the uptake was stopped by adding 500 μL of ice-cold HBSS, and the cells were washed two times with ice-cold HBSS (2 × 500 μL). The cells were then lysed with 500 μL of 0.1 M NaOH (60 min), the lysate was neutralized, and the protein was precipitated with acidic acetonitrile (ACN with 4.8% formic acid). The supernatants were analyzed by the high-performance liquid chromatography (HPLC) methods described below (T4) or by using a liquid scintillation counter (MicroBeta2 counter, PerkinElmer, Waltham, MA) (ES). The concentrations of T4 and ES were calculated from the spiked standard curve and normalized with the protein concentrations. The protein concentrations on each plate were determined as a mean of three samples by Bio-Rad Protein Assay, based on the Bradford dye-binding method, using bovine serum albumin (BSA) as a standard protein and measuring the absorbance (595 nm) by a multiplate reader (EnVision, PerkinElmer, Inc., Waltham, MA). The OATP-mediated uptake was confirmed by changing the pH of the uptake buffer in the absence of sodium ions, and in the case of OATP1C1 in human U-87MG cells, the uptake of T4 (100 μM) was studied in the presence of competing OATP1C1-ligands, diclofenac and flufenamic acid (100 μM), and in the case of oatp1a4/1a5/1a6 in mouse primary astrocytes, the uptake of ES (100 μM) was studied in the presence of competing OATO1A2-ligand, naringin (100 μM).
Cellular uptake of prodrugs 1–8 was studied as described for L-thyroxine above by adding compounds at a concentration of 5–400 μM in prewarmed HBSS buffer (250 μL) on the cell layer and incubating at 37 °C for 30 min (uptake was linear with all compounds up to 30 min). Subsequently, the cells were washed three times with ice-cold HBSS and lysed with 500 μL of 0.1 M NaOH (60 min). The lysate was neutralized; the proteins were precipitated with acidic ACN (containing 4.8% formic acid), and the supernatants were analyzed by the (HPLC) methods described below. The concentrations of each prodrug normalized to protein concentration were calculated from the standard curve prepared by spiking known concentrations of compounds into ACN-precipitated cell lysate. […]

[6] = Enzymatic bioconversion in mouse liver S9 fraction; assay type: in vitro ADME; conditions: after 5 h incubation, 100 μM prodrug, 37 °C, mean ± SD, n = 3
Description: as §1, §2

mouse primary astrocytes = assay: Concentration-dependent cellular uptake into mouse primary astrocytes; assay type: cell-based; conditions: 5–400 μM
Description: The mouse primary astrocytes were isolated from neonatal pups (P0-2) of wild-type mice (C57BL/6JOlaHsd) as previously described, in compliance with the European Commission Directive 2010/63/EU and approved by the Institutional Animal Care and Use Committee of the University of Eastern Finland (Animal Usage Plan numbers: EKS-006-2019).[37] Neonatal pups were decapitated, and their brains were collected in an ice-cold HBSS buffer. After tissue dissociation and washing, cells were plated on poly-L-lysine-coated flasks and cultured in DMEM supplemented with FBS, L-glutamine, and penicillin/streptomycin (50 μg/mL) for 24 h. Debris and dead cells were removed by DPBS rinsing. After 7 days, microglial cells were removed, and the remaining astrocytic monolayer was collected by trypsinization using 0.05% trypsin-ethylenediaminetetraacetic acid (EDTA) (Gibco), pelleted, and stored at −80 °C for subsequent analysis. For the cell uptake experiments, the astrocytes were seeded on 24-well plates with a density of 10^4 cells/well 3 days before the experiments.
as §3
Cellular uptake of prodrugs 1–8 was studied as described for L-thyroxine above by adding compounds at a concentration of 5–400 μM in prewarmed HBSS buffer (250 μL) on the cell layer and incubating at 37 °C for 30 min (uptake was linear with all compounds up to 30 min). Subsequently, the cells were washed three times with ice-cold HBSS and lysed with 500 μL of 0.1 M NaOH (60 min). […]

Row | SMILES | Enzymatic stability, remaining percentage, mouse brain cell homogenate [1] [%] | Enzymatic stability, remaining percentage, human plasma [2] [%] | Enzymatic stability, remaining percentage, mouse serum [3] [%] | Enzymatic stability, remaining percentage, human liver S9 [4] [%] | Km [5] [µM] | Km ([5]; listed as PD1) [µM] | Enzymatic stability, remaining percentage, mouse liver S9 [6] [%] | Km (mouse primary astrocytes; 30 min, 37 °C) [µM] | Vmax, ES uptake into mouse primary astrocytes (mouse primary astrocytes; Figure 2B) [pmol/min/mg] | Vmax, cellular uptake, U-87MG [5] [nmol/min/mg] | Vmax, cellular uptake, astrocytes (mouse primary astrocytes; 30 min, 37 °C) [nmol/min/mg]
1 | CC(C(=O)Oc1c(I)cc(C[C@H](N)C(=O)O)cc1I)c1cccc(C(=O)c2ccccc2)c1 (mixture of isomers) [Prodrug 1, (2S)-2-Amino-3-(4-((2-(3-benzoylphenyl)propanoyl)oxy)-3,5-diiodophenyl)propanoic acid] | 85.76 ± 2.74 | 92.01 ± 5.02 | 94.32 ± 1.27 | 78.13 ± 2.17 | 174 | ~174 | 74.30 ± 7.50 | – | – | – | –
2 | C[C@]12CC[C@@H]3c4ccc(OS(=O)(=O)O)cc4CC[C@H]3[C@@H]1CCC2=O [ES, [6,7-^3H(N)]-estrone-3-sulfate, reference compound] | – | – | – | – | – | – | – | 703 ± 227 | 0.22 ± 0.05 | – | –
3 | N[C@@H](Cc1cc(I)c(Oc2cc(I)c(O)c(I)c2)c(I)c1)C(=O)O [L-Thyroxine T4, L-thyroxine] | – | – | – | – | 111 ± 32 | – | – | 1250 ± 230 | – | 8.86 ± 1.33 | 9.7 ± 6.1
